The source of these data is paper PMC7702301 (Biochemical Journal, 2020).

Assay [1] addresses T1, dephosphorylated MerTK (Homo sapiens, UniProt Q12866).
T1 sequence (Q12866 528-999): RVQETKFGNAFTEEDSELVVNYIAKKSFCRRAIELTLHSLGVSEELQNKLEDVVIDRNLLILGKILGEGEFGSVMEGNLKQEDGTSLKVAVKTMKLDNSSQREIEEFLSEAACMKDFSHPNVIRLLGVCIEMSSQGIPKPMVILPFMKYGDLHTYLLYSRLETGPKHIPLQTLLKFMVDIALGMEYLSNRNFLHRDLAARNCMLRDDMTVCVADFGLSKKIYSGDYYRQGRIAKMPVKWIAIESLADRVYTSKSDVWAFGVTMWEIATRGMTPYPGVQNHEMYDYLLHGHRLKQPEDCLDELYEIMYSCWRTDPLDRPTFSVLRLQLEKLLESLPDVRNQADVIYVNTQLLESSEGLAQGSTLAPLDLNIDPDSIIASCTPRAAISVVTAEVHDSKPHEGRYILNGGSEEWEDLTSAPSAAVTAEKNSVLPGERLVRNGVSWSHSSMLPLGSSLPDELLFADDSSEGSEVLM
As to the kind of experiment: Surface plasmon resonance, dephosphorylated MerTK. It counts as binding.

Assay [2] relates to RIPK1. The settings on record: phosphorylation mimicked by a glutamate residue; cited from earlier work.
The target in assay [3] is T2, MerTK (Homo sapiens, UniProt Q12866).
T2 sequence (Q12866 528-999): T1 sequence (Q12866 528-999)
As to the kind of experiment: Surface plasmon resonance, MerTK. The class given is binding. The conditions noted are these: read-out: residence times.

The subject of assay [4] is MerTK. The conditions noted are these: cited from earlier work.

In assay [1], `Cc1ccc(C(=O)Nc2ccc(Oc3cc4cnn(C)c4cc3-c3cn[nH]c3)c(F)c2)c(=O)n1-c1ccc(F)cc1` [merestinib] registered a residence time greater than 120 min. As for `CN1C(=O)C(Cc2c[nH]c3ccccc23)NC1=S` (stereo not shown) [Nec-1], in assay [2], the “drop of affinity for RIPK1 upon phosphorylation of Ser161” value is on record as roughly 10 fold. `CCc1nc(C(N)=O)c(Nc2ccc(N3CCC(N4CCN(C)CC4)CC3)c(OC)c2)nc1NC1CCOCC1` [gilteritinib]: the residence time in assay [3] is less than 1 min. In addition, in assay [4], the “off-target activity against MerTK” value is reported as “double-digit nanomolar”.
